In one assay the test system is Toxoplasma gondii. Type of assay: cell-based. Here is the method:
(§1) The synthesized cyclic peptides were subject to tests in vitro on human fibroblasts infected by Toxoplasma gondii (Toxo), on non-infected human fibroblasts (HFF) and on HeLa cancer cells (cervical cancer) and MCF-7 cancer cells (breast cancer). Their respective efficiencies were tested at 90 nM as a preliminary test. The results are illustrated in Figure 1.

Assay [1] relates to MCF-7 cancer cells (breast cancer). Format: cell-based. As to the method:
as §1

The test system of assay [2] is non-infected human fibroblasts (HFF). Type of assay: cell-based. Here is the method: as §1
For assay [3], the system named is HeLa cancer cells (cervical cancer). Type of assay: cell-based. Here is the method: as §1
Assay [4] relates to cysts (bradyzoite form) of murine brains. As to the kind of experiment: ex vivo treatment of cysts of murine brains, re-inoculated intraperitoneally to mice. The note with it: cysts treated ex vivo at 200 nM for 7 days, Figure 3. Format: in vivo, Toxoplasma gondii. As to the method:
The cyclic peptide (IV′f) was then tested on cysts (bradyzoite form) of murine brains ex vivo at 200 nM (Figure 3). The cysts after treatment for 7 days with the cyclic peptide (IV′f) were re-inoculated intraperitonally to the mice.

SMILES strings stand for the structures. pEC50: −log10 of the molar value.

As to `C[C@@H](O)C(=O)CCCCC[C@@H]1NC(=O)[C@H]2CCCN2C(=O)[C@H](Cc2ccccc2)NC(=O)C(C)(C)NC1=O` [(IV′f), (3S,9S,14aR)-9-benzyl-3-((R)-7-hydroxy-6-oxooctyl)-6,6-dimethyldecahydropyrrolo[1,2-a][1,4,7,10]tetraazacyclododecine-1,4,7,10-tetraone], in the assay on Toxoplasma gondii, the pEC50 – broadly, −log10 of the EC50, conventionally taken in molar units – was 7.54 and the 90% effect concentration (EC90) – broadly, the concentration needed for an effect of 90% – was 79.7 nM. In addition, the “efficiency in preliminary test” value in the assay on Toxoplasma gondii (90 nM, Figure 1) was “interesting preliminary results”. In addition, in the assay on Toxoplasma gondii (Figure 2), the “activity compared with apicidin” value is “activity close to that of apicidin”; the effectiveness result was “very good effectiveness, of the order of the nanomolar”; the “efficiency compared with pyrimethamine” value is reported as “much greater efficiency relatively to pyrimethamine”. The pEC50 in assay [1] is 6.27. In assay [2], this molecule showed a pEC50 of 6.19 and an EC90 of 4.11 µM. In assay [3], this molecule showed a pEC50 of 6.32 and a concentration for an effect of 90% (EC90) of 1010 nM. Besides, in assay [4], the “cysts in mice after injection of treated cysts” value is reported as “do not exhibit any cyst”.

For the origin of these results see patent US9133237B2, “Cyclic peptides with an anti-parasitic activity” (priority 2009, dated 2015).
